Measurements: ChEMBL document CHEMBL4219122, “Synthesis and biological evaluation of histone deacetylase and DNA topoisomerase II-Targeted inhibitors” (Bioorg Med Chem, 2018)

What was measured:
[1] = molecular target: Histone deacetylase 1 (Homo sapiens, UniProt Q13547); assay: Inhibition of recombinant human HDAC1 expressed in HEK293T cells using Ac-KGLGK(Ac)-MCA as substrate after 30 mins in presence of DTT by fluorescence assay
[2] = test system: DU-145; assay: Growth inhibition of human DU145 cells after 48 hrs by sulforhodamine B-based colorimetric assay; format: functional, cell-based; conditions: DU-145, 48 h
[3] = Growth inhibition of human BSY1 cells after 48 hrs by sulforhodamine B-based colorimetric assay; format: functional; conditions: BSY-1, 48 h
[4] = test system: MDA-MB-231; assay: Growth inhibition of human MDA-MB-231 cells after 48 hrs by sulforhodamine B-based colorimetric assay; format: functional; conditions: MDA-MB-231, 48 h
[5] = test system: SF-268; assay: Growth inhibition of human SF268 cells after 48 hrs by sulforhodamine B-based colorimetric assay; format: functional; conditions: SF-268, 48 h
[6] = test system: KM12; assay: Growth inhibition of human KM12 cells after 48 hrs by sulforhodamine B-based colorimetric assay; format: functional; conditions: KM12, 48 h
[7] = test system: HCT-15; assay: Growth inhibition of human HCT15 cells after 48 hrs by sulforhodamine B-based colorimetric assay; format: functional; conditions: HCT-15, 48 h
[8] = test system: NCI-H23; assay: Growth inhibition of human NCI-H23 cells after 48 hrs by sulforhodamine B-based colorimetric assay; format: functional; conditions: NCI-H23, 48 h
[9] = test system: NCI-H226; assay: Growth inhibition of human NCI-H226 cells after 48 hrs by sulforhodamine B-based colorimetric assay; format: functional; conditions: NCI-H226, 48 h
[10] = test system: DMS-114; assay: Growth inhibition of human DMS114 cells after 48 hrs by sulforhodamine B-based colorimetric assay; format: functional; conditions: DMS-114, 48 h
[11] = test system: LOX IMVI; assay: Growth inhibition of human LOXIMVI cells after 48 hrs by sulforhodamine B-based colorimetric assay; format: functional
[12] = test system: OVCAR-5; assay: Growth inhibition of human OVCAR5 cells after 48 hrs by sulforhodamine B-based colorimetric assay; format: functional; conditions: OVCAR-5, 48 h
[13] = test system: OVCAR-8; assay: Growth inhibition of human OVCAR8 cells after 48 hrs by sulforhodamine B-based colorimetric assay; format: functional; conditions: OVCAR-8, 48 h
[14] = test system: RXF 631; assay: Growth inhibition of human RXF631L cells after 48 hrs by sulforhodamine B-based colorimetric assay; format: functional; conditions: RXF 631, 48 h
[15] = test system: MKN-28; assay: Growth inhibition of human MKN28 cells after 48 hrs by sulforhodamine B-based colorimetric assay; format: functional; conditions: MKN-28, 48 h
[16] = Selectivity index, ratio of IC50 for human placenta topoisomerase 2alpha to IC50 for mouse HDAC6 expressed in HEK293T cells co-expressing mouse HDA2; format: cell-based

Chain of Histone deacetylase 1 (Q13547 whole entry): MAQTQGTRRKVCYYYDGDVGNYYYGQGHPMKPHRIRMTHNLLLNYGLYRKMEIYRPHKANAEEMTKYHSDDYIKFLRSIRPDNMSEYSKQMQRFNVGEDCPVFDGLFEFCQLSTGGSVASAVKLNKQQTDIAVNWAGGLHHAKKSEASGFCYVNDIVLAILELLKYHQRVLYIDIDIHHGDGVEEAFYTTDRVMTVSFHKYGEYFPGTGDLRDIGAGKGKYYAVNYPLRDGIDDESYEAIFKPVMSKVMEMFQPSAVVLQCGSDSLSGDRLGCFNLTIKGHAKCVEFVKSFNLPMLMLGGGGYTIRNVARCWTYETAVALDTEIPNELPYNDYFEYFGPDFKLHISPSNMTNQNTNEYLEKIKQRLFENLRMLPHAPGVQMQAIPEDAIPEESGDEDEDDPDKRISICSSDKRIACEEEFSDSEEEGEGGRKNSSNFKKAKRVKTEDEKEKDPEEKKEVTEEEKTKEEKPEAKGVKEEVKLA

Row | IC50 [1] [µM] | GI50 ([2]; read-out: GI50) [µM] | GI50 ([2]; read-out: pGI50 (converted)) [µM] | GI50 [4] [µM] | GI50 [7] [µM] | GI50 [8] [µM] | GI50 [9] [µM] | GI50 [12] [µM] | GI50 [13] [µM] | GI50 [15] [µM] | SMILES | GI50 [3] [µM] | GI50 [5] [µM] | GI50 [6] [µM] | GI50 [10] [µM] | GI50 [11] [µM] | GI50 [14] [µM] | Ratio IC50 [16]
1 | 1.1 | 3.98 | 3.98 | 3.09 | 15.5 | 7.94 | 10.2 | 6.61 | 4.27 | 4.27 | Cc1cn([C@@H]2C[C@H](C3(c4ccc(NC(=O)CCCCCCC(=O)NO)cc4)SCCCS3)[C@@H](CO[Si](C)(C)C(C)(C)C)O2)c(=O)[nH]c1=O | 2.63 | 6.03 | 6.76 | 3.55 | 2.14 | 11.2 | 20
2 | 0.73 | 3.98 | 3.98 | 2.51 | 3.55 | 4.68 | 3.89 | 4.9 | 3.55 | 3.72 | Cc1cn([C@H]2C[C@H](C3(c4ccc(NC(=O)CCCCCCC(=O)NO)cc4)SCCCS3)[C@@H](CO[Si](C)(C)C(C)(C)C)O2)c(=O)[nH]c1=O | 2.63 | 4.37 | 4.57 | 3.09 | 1.78 | 3.63 | 
